Measurements taken from patent publication US7485651B2, “Compounds with activity on muscarinic receptors” (Acadia Pharmaceuticals, Inc., priority 1998, dated 2009).

Tests used:
Type in all cases: cell-based
histamine H1 = histamine H1 (Homo sapiens, UniProt P35367); experiment: Test against other receptors: histamine H1
m1 receptor = molecular target: T1, m1 receptor (Homo sapiens, UniProt P11229); experiment: R-SAT / NIH 3T3 cells transfected with m1 muscarinic receptor
T1 construct: expressed in transfected cells; host or cells: NIH 3T3 (ATCC CRL 1658)
T1 sequence (P11229 1-460): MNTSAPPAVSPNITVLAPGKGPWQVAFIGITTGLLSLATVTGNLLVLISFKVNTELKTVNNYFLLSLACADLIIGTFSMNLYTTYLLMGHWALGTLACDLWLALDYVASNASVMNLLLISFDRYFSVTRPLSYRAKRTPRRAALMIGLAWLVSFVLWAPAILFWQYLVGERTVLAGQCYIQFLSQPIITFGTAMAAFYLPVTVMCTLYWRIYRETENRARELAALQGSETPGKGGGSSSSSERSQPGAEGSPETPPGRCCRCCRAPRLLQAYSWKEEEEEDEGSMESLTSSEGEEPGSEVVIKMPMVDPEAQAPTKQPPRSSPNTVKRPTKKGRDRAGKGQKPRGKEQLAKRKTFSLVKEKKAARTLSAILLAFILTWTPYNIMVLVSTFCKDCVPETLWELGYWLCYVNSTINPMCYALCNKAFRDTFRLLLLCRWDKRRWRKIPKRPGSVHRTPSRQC
Description: Cell amplification is detected as increased levels of a marker also expressed by the cells.
The cells were treated with trypsin-EDTA, spun down and plated at 2×10^6 per 15 cm dish in 20 m1 of DMEM containing 10% calf serum.
On day one, the cells were transfected using the Superfect transfection reagent (available from Qiagen, Valencia, Calif.) in accordance with the manufacturer's instructions. Receptor DNA, β-gal DNA (pSI-β-galactosidase available from Promega, Madison, Wis.), chimeric Gq-i5 DNA for the m2 and m4 receptor subtype assays, and salmon sperm DNA (available from Sigma, St. Louis, […].) as filler to a total of 20 μg DNA was added per plate. Prior to addition to the plates, 60 μl Superfect was added to the DNA and mixed thoroughly by pipetting up and down several times. The mixture was incubated at room temperature for 10-15 minutes. The media were aspirated, and 12 ml fresh DMEM containing 10% calf serum and 50 units/m1 penicillin/streptomycin was added to the plates. The DNA-Superfect solution was mixed once more with a pipette and added to the plate which was swirled to distribute the DNA mixture evenly over the surface. The cells were incubated overnight at 37° C. and 5% CO2. After incubation, the media were aspirated and the plates were rinsed once with a 15 m1 volume of Hank's Buffered Saline. The plates were swirled to ensure thorough rinsing. 20 m1 fresh DMEM supplemented with 10% calf serum and 50 units/m1 penicillin/streptomycin was added to the plates. The cells were incubated for 24-48 hours until the plates were 100% confluent.
Assay of NIH 3T3 cells transfected with muscarinic receptor subtypes (general procedure) DMEM containing 2% Cyto-SF3 was heated at 37° C. in a water bath under sterile conditions. Sterile working stock solutions of test compounds to be assayed were prepared by diluting the compounds in DMEM to 8× the final concentration for testing. The compound (carbachol) to be included in the assay as a positive control was also diluted in DMEM to 8× the final concentration. 50 μL of the DMEM containing 2% Cyto-SF3 was added to each well of 96-well microtiter plates under sterile conditions. Then, 16 of compound solutions were added to the top wells of the plates, and dilution of the solutions was performed by taking 16 μl of the compound solutions from the top wells and pipetting them into the next row of wells. This procedure was repeated with each subsequent row of wells, except that 50 μl medium alone was added to the baseline control wells (the wells that contain medium and cells, but not test compounds) and plate control wells (wells containing medium, but not test compounds and cells). The plates were then placed in an incubator at 37° C. to equilibrate temperature and pH.
When the cell cultures had reached 100% confluence, the medium was aspirated and each plate was rinsed with 15 m1 Hank's Buffered Saline (HBS). The cells were left in the incubator for about 10-15 minutes until the HBS had turned slightly yellow. The HBS was then aspirated and 1 m1 trypsin was added to each plate and swirled so as to completely cover the plates. The edges of the plates were gently rapped several times to loosen the cells. After the cells had been dislodged from the surface, 8 m1 DMEM containing 10% calf serum and 50 units/m1 penicillin and 50 units/m1 streptomycin was added to inhibit the trypsin. The plates were rinsed with this medium, and the cells were pipetted into a tube. The cells were centrifuged at 1000 rpm for 5-10 min. in an IEC Centra CL2 centrifuge (produced by Sorvall). Afterwards, the medium was carefully aspirated so as not to dislodge the cells. The cell pellet was suspended in 1600 μl DMEM containing 10% calf serum and 50 units/m1 penicillin and 50 units/m1 streptomycin, after which 20 m1 DMEM supplemented with 2% Cyto-SF3 was added. 50 μl aliquots of this cell suspension was added to the wells of the 96-well microtiter plates prepared above (except for the plate control wells).

[1] = molecular target: T2, α-adrenergic receptor subtype 2A (Homo sapiens, UniProt P08913); experiment: Test against other receptors: α-adrenergic 2A
T2 sequence (P08913 1-465): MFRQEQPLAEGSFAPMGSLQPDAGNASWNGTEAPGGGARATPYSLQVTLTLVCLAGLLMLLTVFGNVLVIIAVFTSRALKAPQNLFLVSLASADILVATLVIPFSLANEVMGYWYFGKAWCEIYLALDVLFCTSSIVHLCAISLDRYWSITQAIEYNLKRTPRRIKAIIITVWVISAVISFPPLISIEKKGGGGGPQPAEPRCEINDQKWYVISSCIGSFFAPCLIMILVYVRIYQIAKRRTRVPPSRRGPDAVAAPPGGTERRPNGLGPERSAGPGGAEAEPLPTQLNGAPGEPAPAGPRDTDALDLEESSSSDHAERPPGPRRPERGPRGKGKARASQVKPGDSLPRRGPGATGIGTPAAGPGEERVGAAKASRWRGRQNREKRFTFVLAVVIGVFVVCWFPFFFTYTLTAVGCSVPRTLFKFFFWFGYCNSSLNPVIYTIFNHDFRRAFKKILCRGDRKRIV

Chain of histamine H1 (P35367 whole entry): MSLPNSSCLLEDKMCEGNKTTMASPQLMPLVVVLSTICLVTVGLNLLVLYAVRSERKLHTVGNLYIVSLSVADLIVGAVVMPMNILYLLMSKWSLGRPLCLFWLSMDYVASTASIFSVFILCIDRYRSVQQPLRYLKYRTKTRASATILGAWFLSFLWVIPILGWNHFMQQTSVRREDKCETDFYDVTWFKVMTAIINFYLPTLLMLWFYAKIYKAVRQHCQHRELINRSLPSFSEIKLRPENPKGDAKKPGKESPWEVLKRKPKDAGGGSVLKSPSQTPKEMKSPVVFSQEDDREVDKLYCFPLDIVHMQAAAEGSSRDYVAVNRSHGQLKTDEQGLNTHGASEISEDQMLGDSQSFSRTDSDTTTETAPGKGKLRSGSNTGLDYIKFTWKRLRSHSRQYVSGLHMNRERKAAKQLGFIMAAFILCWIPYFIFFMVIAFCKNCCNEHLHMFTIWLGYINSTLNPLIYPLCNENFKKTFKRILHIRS

CCCCC1CCN(CCCC(=O)c2ccccc2C)CC1 [Compound A, 4-n-Butyl-1-[4-(2-methylphenyl)-4-oxo-1-butyl]piperidine]
agonist activity (histamine H1): no significant activity
Emax at 1.5 µM (m1 receptor; NIH3T3, m1, compound at 1.5 μM, maximum = response to 10 μM carbachol, read-out: Cellular response as a percentage of the maximum response of the cells): 107%
antagonism of carbachol-induced responses (m1 receptor; m1): not an antagonist
maximal response relative to reference compound carbachol (m1 receptor; m1 receptor): lower maximal response than the reference compound carbachol
agonist activity at the m1 receptor (m1 receptor; receptor transfected into separate cell cultures): potent partial agonist
agonist activity [1]: no significant activity
inhibition of receptor responses (antagonist experiments) [1]: did not inhibit
